Measured values published in patent publication EP0320006A2, “Uses of 1,4-dihydropyridines” (LABORATOIRES SYNTEX, priority 1987, dated 1989).
Marks after values point to notes of the source that are not given here.

Key:
Male CD1 mice = assay: Anticonvulsant activity against pentylenetetrazole (PTZ) induced seizures; assay type: in vivo; conditions: for % Clonic: incidence of clonic seizures; for % Tonic: incidence of tonic seizures
Procedure: The amount of test compound needed to prevent convulsions induced by a fixed amount of pentylenetetrazol can then be determined.
(A) Male CD1 mice (Charles River) are randomly divided into groups of at least 20, and treated with 500 µg/Kg of (S,RS)-2,6-dimethyl-3-carbomethoxy-4-(3-nitrophenyl)-5-(3-[4-(2-tetrahydropyran-2-yloxyethyl)-phenoxy]propoxycarbonyl)-1,4-dihydropyridine (the compound is dissolved in 0.1 mL of ethanol and diluted with 99.9 mL saline and injected intraperitoneally) before subcutaneous administration of 100 mg/Kg pentylenetetrazole ("PTZ", a known convulsant) under the following dosing schedules: (A) 15 minutes prior to PTZ administration; (B) 60 minutes prior to PTZ administration; and (C) b.i.d. for three days prior to PTZ administration, a further dose being given on a fourth day 15 minutes prior to PTZ administration. After PTZ administration, the mice are observed for at least 30 minutes, and the incidence of clonic seizures, tonic seizures, and death is noted. The experiment is terminated by pentobarbitone overdose.

[1] = test system: CA₁ pyramidal cells in the hippocampus; assay: Neuroprotection from ischemic damage: delayed neuronal death after bilateral carotid occlusion; assay type: in vivo, Mongolian gerbils; conditions: then B.I.D. three days post-ischemia
Procedure: This experimental test is described in the literature by Kirino, T. Brain Research, 239, 57-69 (1982). A detailed description is set forth in Example 3.
Mongolian gerbils of either sex (50-80 g) are treated with a test compound (or control) either intraperitoneally (IP) at 500 mg/kg 15 minutes prior to induction of ischemia followed by B.I.D. dosing for three days post-ischemia, or orally at 5 mg/kg twice daily for 3 out of 4 days and then 15 minutes prior to cerebral ischemia on the 4th day followed by B.I.D. dosing for three days post-ischemia. To facilitate induction of forebrain ischemia the animals are then anesthetized with halothane (5% in 30:70 oxygen:nitrous oxide) delivered by face mask. Following rapid induction, the halothane is decreased to 1.5-2% and maintained at that level for the remainder of the experiment. The left and right common carotid arteries are exposed in the paratracheal region through a ventral midline cervical skin incision and freed from the accompanying vagosympathetic nerve trunks. A loose ligature is placed around the arteries to facilitate identification at the time of occlusion.
The carotid arteries are then bilaterally occluded for 5 minutes using microvascular clips (Ackland C-2-V, Weiss, London). Blood flow is then restored, the wound dusted with antibiotic powder (Cicatrin, Calmic Medical Division, The Wellcome Foundation Ltd., London), and sutured. The subjects are then caged individually and allowed food and water ad libitum. […]
The extent of neuronal death is determined by counting microscopically (at 40x power) all normal and abnormal cells in five fields per hemisphere of the hippocampal CA₁ subfield from the paramedian area to its junction with CA₂ neurons. The field counts are then summed and the mean percentage of dead cells calculated (n=10 fields per brain). Statistical significance was calculated using the Student's t test for unpaired samples, with significance taken at p less than 0.05.

dogs = assay: Toxicology: three-month oral dosing; assay type: in vivo
[2] = schedule A: 500 µg/Kg intraperitoneally 15 minutes prior to PTZ 100 mg/Kg s.c.
[3] = schedule B: 500 µg/Kg intraperitoneally 60 minutes prior to PTZ 100 mg/Kg s.c.
[4] = schedule C: 500 µg/Kg intraperitoneally b.i.d. for three days, further dose on fourth day 15 minutes prior to PTZ 100 mg/Kg s.c.

COC(=O)C1=C(C)NC(C)=C(C(=O)OCCCOc2ccc(CCOC3CCCCO3)cc2)[C@H]1c1cccc([N+](=O)[O-])c1 (mixture of isomers) [X, (S,RS)-2,6-dimethyl-3-carbomethoxy-4-(3-nitrophenyl)-5-[3-(4-[2-(tetrahydropyran-2-yloxy)ethyl]phenoxy)propoxycarbonyl]-1,4-dihydropyridine]
anticonvulsant activity (Male CD1 mice; PTZ test in mice, statement in words): demonstrates anticonvulsant activity | % Death (Male CD1 mice; [2]): 38.1* % | % Clonic (Male CD1 mice; [2]): 90.5% | % Tonic (Male CD1 mice; [2]): 90.5% | % Death (Male CD1 mice; [3]): 35* % | % Clonic (Male CD1 mice; [3]): 80% | % Tonic (Male CD1 mice; [3]): 40*** % | % Death (Male CD1 mice; [4]): 60% | % Clonic (Male CD1 mice; [4]): 65** % | % Tonic (Male CD1 mice; [4]): 55% | Percentage abnormal neurone count ([1]; intraperitoneal administration, PEG 300 + water, 500 mg/kg 15 minutes prior to ischemia, 5 minutes occlusion, counted at 72 hours): 6.6 ± 0.8% | Percentage abnormal neurone count ([1]; intraperitoneal administration, alcoholic vehicle, 500 mg/kg 15 minutes prior to ischemia, 5 minutes occlusion, counted at 72 hours): 5.6 ± 0.3% | Percentage abnormal neurone count ([1]; oral, PEG 300 + vehicle, 5 mg/kg twice daily 3 out of 4 days, 15 minutes prior to ischemia on 4th day): 58.0 ± 5.0% | pathological change (dogs; oral dosing of dogs for three months at 1.5 and 10 mg/kg/day): did not produce any pathological change | urine analysis (dogs; oral dosing of dogs for three months, all doses): normal | Ophthalmoscopy (dogs; oral dosing of dogs for three months, all doses, throughout the study): remained normal
